Laboratory results taken from ChEMBL document CHEMBL6109096, “Synthesis, anti-allergic rhinitis evaluation and mechanism investigation of novel 1,2,4-triazole-enamides as CB1 R antagonist” (Eur J Med Chem, 2025).

Key:
RAW264.7 [1] = assay: Inhibition of IL-1beta (unknown origin) in mouse RAW264.7 relative to control; assay type: cell-based; details: dose or concentration not given here
RAW264.7 [2] = assay: Cytotoxicity against mouse RAW264.7 cells assessed as reduction in cell viability at 10 uM incubated for 24 hrs by CCK-8 assay; assay type: toxicity, cell-based; details: raw264.7, 24 h

Structure (SMILES)	inhibition (RAW264.7 [1]) [%]	Activity (RAW264.7 [2])
CN(/C=C\c1ccccc1)C(=O)/C=C/c1ccccc1	19	–
CN(/C=C\c1ccccc1)C(=O)c1nc(-c2ccccc2)n(-c2ccccc2)n1	–	Non-toxic
CN(/C=C\c1ccccc1)C(=O)c1nc(-c2ccccc2Cl)n(-c2ccccc2)n1	–	Non-toxic
CN(/C=C\c1ccccc1)C(=O)c1nc(-c2ccc(Br)cc2)n(-c2ccccc2)n1	–	Non-toxic
CN(/C=C\c1ccccc1)C(=O)c1nc(-c2ccc(C(F)(F)F)cc2)n(-c2ccccc2)n1	–	Non-toxic
CN(/C=C\c1ccccc1)C(=O)c1nc(-c2ccco2)n(-c2ccccc2)n1	–	Non-toxic
CN(/C=C\c1ccccc1)C(=O)c1nc(-c2ccc3ccccc3c2)n(-c2ccccc2)n1	–	Non-toxic
CN(/C=C\c1ccccc1)C(=O)c1nc(-c2cccc(Cl)c2)n(-c2ccccc2)n1	–	Non-toxic
CC(C)c1nc(C(=O)N(C)/C=C\c2ccccc2)nn1-c1ccccc1	–	Non-toxic
Cc1cccc(-c2nc(C(=O)N(C)/C=C\c3ccccc3)nn2-c2ccccc2)c1	–	Non-toxic
CN(/C=C\c1ccccc1)C(=O)c1nc(CC(C)(C)C)n(-c2ccccc2)n1	–	Non-toxic
Cc1ccc(-c2nc(C(=O)N(C)/C=C\c3ccccc3)nn2-c2ccccc2)cc1	–	Non-toxic
